The assay deals with CP362 bacteria overexpressing the Tar receptor (pNT201). In words: Swarm assay on TB semi-solid agar (chemotaxis). The format is cell-based, Escherichia coli. To be noted: 20 μM peptide, 35° C.

Take “KKKMVLGVFALLFLIGGSLKK [F/G mutant peptide]”: the “expansion speed / chemotactic behavior of the bacteria” value is “no significant effect”.
To “KKKMVLGVFALLQLISGSLKK [Tar-1 all-L, peptide corresponding to the transmembrane domain 1 of Tar, reference compound]” belongs “significantly reduced”.
